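Growth conditions: 96-well plates. Treatment: test compound, 48 hours, 5 concentrations. Analysis: linear interpolation between bracketing concentrations; unreached endpoints set to highest concentration. At the GI50, growth is halved. TGI denotes the concentration required for complete inhibition of growth.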

Among the test systems are SK-MEL-2 melanoma; SF-539 CNS; EKVX NSCLC; NCI-H226 lung; TK-10 renal; HS 578T breast; CCRF-CEM leukemia; OVCAR-5 ovarian; UACC-257 melanoma; MCF7 breast.
Holding throughout (assay): growth of human tumour cells (NCI), 48 h

Consider `CCCC(=O)O`, for which the TGI in the test on SK-MEL-2 melanoma is > 18700 µM; in the test on SF-539 CNS it was 16900 µM; with EKVX NSCLC, > 18700 µM; in the test on NCI-H226 lung, > 18700 µM; with TK-10 renal, > 18700 µM; in the test with HS 578T breast, > 18700 µM. The TGI with CCRF-CEM leukemia and with OVCAR-5 ovarian was > 18700 µM throughout. For the same compound, the GI50 was 2120 µM with TK-10 renal and 4950 µM with HS 578T breast.
As for `O=C(O)CCCl`, the TGI in the test on SK-MEL-2 melanoma, in the test with SF-539 CNS, in the test with NCI-H226 lung, with UACC-257 melanoma, in the test with TK-10 renal and in the test with CCRF-CEM leukemia was > 5000 µM in each case. The TGI in the test on OVCAR-5 ovarian is > 5000 µM.
Turning to `FC(F)(F)c1ccc(-c2nc(-c3nc4cc(Cl)c(Cl)cc4[nH]3)c3ccccn23)cc1`, the GI50 was 9.49 µM in the test with SK-MEL-2 melanoma; > 100 µM with UACC-257 melanoma; 8.15 µM with TK-10 renal; 3.99 µM in the test with HS 578T breast; > 100 µM in the test with CCRF-CEM leukemia; > 100 µM with OVCAR-5 ovarian. Also, the TGI in the test on SK-MEL-2 melanoma is 52.2 µM; with UACC-257 melanoma, > 100 µM; in the test with TK-10 renal, > 100 µM; in the test with HS 578T breast it was > 100 µM; in the test on CCRF-CEM leukemia, > 100 µM; in the test with OVCAR-5 ovarian, > 100 µM.
For `CCOC(=O)c1cn(-c2ccccc2)c(=S)n2c1nc1ccccc12`, the TGI with SK-MEL-2 melanoma is > 100 µM; in the test on SF-539 CNS, > 100 µM; in the test with EKVX NSCLC it was > 100 µM; in the test with NCI-H226 lung, > 88.1 µM; in the test on UACC-257 melanoma, > 100 µM; in the test with TK-10 renal, > 100 µM. Further, the results for the TGI with CCRF-CEM leukemia, in the test with OVCAR-5 ovarian and with MCF7 breast were 65.3 µM, > 100 µM and > 100 µM, respectively.
Take `O=C(CSCC(=O)N/N=C/c1cc(I)cc(I)c1O)N/N=C/c1cc(I)cc(I)c1O`: the TGI is 47.4 µM with SK-MEL-2 melanoma; 38.1 µM in the test on SF-539 CNS; 79.2 µM with EKVX NSCLC; 41.1 µM with NCI-H226 lung; > 100 µM in the test with UACC-257 melanoma; 31.6 µM with TK-10 renal. Moreover, the TGI was 39 µM with HS 578T breast, 82.5 µM in the test on OVCAR-5 ovarian and 70.7 µM with MCF7 breast.
As for `COc1cc2c(cc1OCCCN1CCN(CCCOc3cc4c(cc3OC)C(=O)N3CCC[C@H]3C=N4)CC1)C=CC(C)(C)O2`, the GI50 in the test on SK-MEL-2 melanoma is 1.58 µM; with SF-539 CNS, 1.26 µM; in the test on EKVX NSCLC it was 1.36 µM; in the test on UACC-257 melanoma it was 1.82 µM; in the test on TK-10 renal, 1.46 µM; in the test on CCRF-CEM leukemia, 0.288 µM. In addition, the GI50 in the test on OVCAR-5 ovarian was 1.7 µM; with MCF7 breast, 0.423 µM. Besides, the TGI with SK-MEL-2 melanoma worked out at 2.97 µM; with SF-539 CNS, 2.51 µM; in the test with EKVX NSCLC, 2.75 µM; in the test with UACC-257 melanoma, 3.52 µM; in the test on TK-10 renal, 2.87 µM; in the test on OVCAR-5 ovarian, 3.18 µM. In addition, in the test with MCF7 breast, the TGI stood at 1.69 µM.
In the case of `Cc1ccc(S(=O)(=O)c2scc(-c3ccccc3)c2C)cc1`, the TGI with SK-MEL-2 melanoma, with SF-539 CNS, in the test with EKVX NSCLC, in the test with NCI-H226 lung, in the test with UACC-257 melanoma and in the test with TK-10 renal was > 100 µM in each case. Moreover, the TGI in the test with HS 578T breast and in the test on MCF7 breast was > 100 µM in each case.
Take `CN(C)CC(/C(Cc1ccccc1)=N\NC(=O)C[n+]1ccccc1)c1ccccc1` (configuration not stated): the TGI in the test with SK-MEL-2 melanoma, in the test on SF-539 CNS, with EKVX NSCLC, with NCI-H226 lung, in the test on UACC-257 melanoma and with TK-10 renal was > 100 µM throughout. In addition, the TGI in the test with CCRF-CEM leukemia and in the test on OVCAR-5 ovarian was > 100 µM each time.
In the case of `Clc1ccc2c(SCC3CO3)c3ccccc3nc2c1` (configuration not stated), the TGI is 8.11 µM in the test with SK-MEL-2 melanoma; 7.11 µM in the test with SF-539 CNS; 20.4 µM in the test with EKVX NSCLC; > 100 µM in the test on NCI-H226 lung; 9.3 µM with UACC-257 melanoma; 3.35 µM with TK-10 renal. Moreover, the TGI is 6.98 µM in the test on CCRF-CEM leukemia, 10.4 µM with OVCAR-5 ovarian and 3.19 µM with MCF7 breast.
On to `O=C(CSc1nnc(-c2ccc(N=Cc3ccc(Cl)cc3)cc2)o1)Nc1ccccc1Cl`, for which the TGI in the test with SK-MEL-2 melanoma, in the test with EKVX NSCLC, with NCI-H226 lung, in the test with UACC-257 melanoma, in the test with TK-10 renal and with CCRF-CEM leukemia was > 100 µM throughout.
Regarding `O=C(Nc1c(O)[nH]c(=S)[nH]c1=O)c1ccccn1`, the TGI with SK-MEL-2 melanoma, in the test on SF-539 CNS, in the test on NCI-H226 lung, in the test with UACC-257 melanoma, in the test with TK-10 renal and in the test on CCRF-CEM leukemia was > 100 µM in each case. Also, the TGI with OVCAR-5 ovarian was > 100 µM.
As to `C[N+]1(C)CCCC1C(=O)[O-]` (configuration not stated), the TGI in the test with SK-MEL-2 melanoma, in the test with SF-539 CNS, in the test with EKVX NSCLC, in the test with NCI-H226 lung, in the test with UACC-257 melanoma and in the test with TK-10 renal was > 100 µM each time. Besides, the TGI in the test on CCRF-CEM leukemia is > 100 µM.
Regarding `Cc1c2cc[nH]c(C(F)(F)F)c2cc2c1nc1ccccc12`, the TGI with SK-MEL-2 melanoma, with SF-539 CNS, with EKVX NSCLC, in the test on NCI-H226 lung, with UACC-257 melanoma and in the test on CCRF-CEM leukemia was > 125 µM in each case. Further, the TGI with OVCAR-5 ovarian and in the test on MCF7 breast was > 125 µM in each case.
With `O=C1N[C@H]2c3c(Cl)sc(Cl)c3/C(=N/O)[C@H]2O1`, the TGI in the test with SK-MEL-2 melanoma, in the test with SF-539 CNS, with EKVX NSCLC, with UACC-257 melanoma, with TK-10 renal and with CCRF-CEM leukemia was > 100 µM each time. For the same compound, the TGI with OVCAR-5 ovarian and with MCF7 breast was > 100 µM in each case.
Turning to `Cc1ccc(C2CC(=O)CC(c3ccc(C)cc3)C23C(=O)NC(=O)NC3=O)cc1` (configuration not stated), the TGI with SK-MEL-2 melanoma, in the test with SF-539 CNS, with EKVX NSCLC, in the test with NCI-H226 lung, in the test on UACC-257 melanoma and in the test on TK-10 renal was > 100 µM each time. In addition, the TGI with CCRF-CEM leukemia, in the test with OVCAR-5 ovarian and in the test with MCF7 breast was > 100 µM each time.

The values above are taken from PubChem BioAssay (NCI).
